Measured values as given in patent US5314890A, “1-7 disubstituted xanthine derivatives having antiasthmatic activity, their physiologically acceptable salts, pharmaceutical compositions containing them and process for their preparation” (priority 1990, dated 1994).
Like-named read-outs stand apart in the source and are kept apart here.

Key:
[1] = system: isolated guinea pig bronchi; assay: "In vitro" antibronchospastic activity in isolated guinea pig bronchi; format: cell-based; conditions: Cavia porcellus
Protocol: A steady tonic bronchomotor response was produced by administration of carbachol (0.3 μM) or capsaicin (0.3 μM, in presence of thiorphan 10 μM) on which a concentration-response curve with the various xanthine derivatives was carried out.

[2] = system: male Swiss mice; assay: Pentylentetrazol-induced lethality in mice; format: in vivo; conditions: 0.55 mmol/kg orally, 1 h before PTZ (60-75 mg/kg i.p.); controls 10%
Protocol: The drugs were administered orally (0.55 mmol/kg) in a volume of 20 ml/kg 1 h before PTZ. CNS excitation was valued as increase of PTZ mortality.

[3] = system: male Swiss mice; assay: Chlordiazepoxide-induced sleep in mice; format: in vivo, mouse; conditions: 0.55 mmol/kg orally, 1 h before CDO (100 mg/kg i.p.); controls 27.1 ± 3.5 min; * p < 0.01
Protocol: Starved (20 h) male Swiss mice (20 g body weight) were injected with chlordiazepoxide (CDO) (100 mg/kg i.p.) and the duration of the induced sleep assessed. Sleeping time was defined as the time elapsing from the loss to the recovery of the righting reflex. The drugs were administered orally (0.55 mmol/kg) in a volume of 20 ml/kg 1 h before CDO. CNS excitation was valued as decrease in sleeping time (Table 4).

[4] = Antibronchospastic / bronchodilatory activity, general statement (laboratory tests by the Applicant)
[5] = system: anaesthetized guinea pigs (sensitized); assay: Antagonism toward ovoalbumin induced bronchomotor effects in anaesthetized guinea pigs; format: in vivo, guinea pig; conditions: 140 μmol/Kg i.v., 15 min before OA aerosol 0.5% for 20 s; for % inhibition of OA-induced bronchospasm referred to control group: N.A. = not active; for changes in pulmonary insufflation pressure after OA aerosol: controls 1.80 ± 0.15 KPa
Protocol: Antagonism toward ovoalbumin induced bronchomotor effects in anaesthetized guinea pigs.
Anaesthetized guinea pigs (sensitized with 100 mg/Kg s.c. plus 100 mg/Kg i.p. of ovoalbumin (OA) 14 days before tests) were used as described previously although bronchospasm was produced by OA intratracheal aerosol administration (0.5% for 20 s.).
Antibronchospastic activity was expressed as changes in pulmonary insufflation pressure (KPa) after OA aerosol administration and as inhibition percentage referred to control group.

[6] = Acute oral toxicity in mice; conditions: mouse, in vivo, starved male Swiss mice, observed 10 days, Litchfield and Wilcoxon
Protocol: Starved (18 h) male Swiss mice (20 g weight) received drugs orally (0.2 ml/10 g weight).
Death and symptoms were evaluated LD50 was obtained according to Litchfield and Wilcoxon (J. Pharm. Expt. Ther. 96, 99, 1949).

[7] = system: anaesthetized guinea pigs; assay: Antagonism toward acetylcholine- and capsaicin-induced bronchomotor effects in anaesthetized guinea-pig; format: in vivo; conditions: 70 μmol/kg i.v., mean ± s.e.m.; for inhibition percentage of acetylcholine (Ach) induced bronchospasm: 15 min before acetylcholine 25 μg/kg; for inhibition percentage of capsaicin (Caps) induced bronchospasm: 15 min before capsaicin 2.5 μg/kg
Protocol: Anaesthetized guinea-pig were used D-Tubocurarine (3 mg/kg i.v.) was administered, and a mechanic ventilation (60 strokes/min) with a pump through a tracheal cannula was carried out Drugs were administered intravenously in a volume less than 0.5 ml/kg through a jugular cannula. Acetylcholine (25 μg/kg) or capsaicin (2.5 μg/kg) administration evoked a powerful and transient increase in tracheal insufflation pressure which was repeatable after 30 min. […] Antibronchospastic activity was expressed as inhibition percentage referred to the first increase of tracheal insufflation pressure.

[8] = system: sensitized guinea-pigs; assay: Antagonism toward antigen-induced bronchospasm in sensitized guinea-pigs; format: in vivo, guinea pig; conditions: 0.55 mmol/kg orally, 1 hour before 0.5% ovalbumin aerosol; mean ± s.e.m.; control 8.4 ± 0.8; * p < 0.05
Protocol: Guinea-pigs (sensitized with 100 mg/kg s.c. plus 100 mg/kg i.p. of ovalbumin 14 days before) (Herxheimer and Streseman-Arch. Int. Pharmacodyn. Ther. 125, 265; 1960) were challenged by an aerosol of 0.5% ovalbumin, for a period of 10 sec. in a closed chamber.
In a first set of experiments, number of aerosol-induced bronchospasms was registered in control conditions or 1 hr after the oral administration of testing substances.

[9] = Goodman and Gilman, 1985; cited from earlier work
[10] = isolated guinea pig bronchi, capsaicin 0.3 μM with thiorphan 10 μM, 95% C.L. in brackets, read-out: IC50, capsaicin-induced tone
[11] = isolated guinea pig bronchi, carbachol 0.3 μM, 95% C.L. in brackets, read-out: IC50, carbachol-induced tone

Cn1c(=O)[nH]c2ncn(C)c2c1=O [Paraxanthine, 1,7-dimethyl-xanthine]
IC50 ([1]; read-out: IC50, capsaicin-induced tone): 82 µM | IC50 ([1]; read-out: IC50, carbachol-induced tone): 135 µM | PTZ test mortality rate [2]: 82% | CDO test sleeping-time [3]: 2.3 ± 1.5 min | antibronchospastic / bronchodilatory activity (in words) [4]: does not show any significant antibronchospastic activity

Cn1c(=O)[nH]c2ncn(CC(C)(C)O)c2c1=O [1-methyl-7-(2-methyl-2-hydroxy-propyl)-xanthine]
% inhibition of OA-induced bronchospasm referred to control group [5]: 36% | changes in pulmonary insufflation pressure after OA aerosol [5]: 1.15 ± 0.15 KPa | PTZ test mortality rate [2]: 0% | CDO test sleeping-time [3]: 64.2 ± 12.8 min

CC(C)Cn1cnc2[nH]c(=O)n(C)c(=O)c21 [1-methyl-7-isobutyl-xanthine]
LD50 at 240 h [6]: 303 mg/kg | IC50 [1, 10]: 21 µM | IC50 [1, 11]: 31 µM | inhibition percentage of acetylcholine (Ach) induced bronchospasm [7]: 54 ± 5% | inhibition percentage of capsaicin (Caps) induced bronchospasm [7]: 52 ± 3% | % inhibition of OA-induced bronchospasm referred to control group [5]: 86% | changes in pulmonary insufflation pressure after OA aerosol [5]: 0.25 ± 0.08 KPa | number of bronchospasms recorded in 5 minutes (bronchospasm/min) [8]: 5.0 ± 1.1 bronchospasm/min | PTZ test mortality rate [2]: 20% | CDO test sleeping-time [3]: 26.1 ± 3.3 min

Cn1c(=O)c2[nH]cnc2n(C)c1=O [Theophylline, 1,3-dimethyl-xanthine, reference compound]
IC50 [1, 10]: 40 µM | IC50 [1, 11]: 92 µM | inhibition percentage of acetylcholine (Ach) induced bronchospasm [7]: 51 ± 8% | inhibition percentage of capsaicin (Caps) induced bronchospasm [7]: 51 ± 7% | number of bronchospasms recorded in 5 minutes (bronchospasm/min) [8]: 4.6 ± 1.2 bronchospasm/min | CDO test sleeping-time [3]: 7.8 ± 2.2 min | side effects (in words) [9]: side effects on the cardiovascular system and on the central nervous system
